Experimental findings from patent US6673902B2, “Cyclin D binding factor, and uses thereof” (St. Jude Children's Research Hospital, priority 1996, dated 2004) are described below.

The test system of test [1] is promoters lacking BS2 sites or containing Ets-specific M3 sites. Kind of test: Transactivation of reporters lacking BS2 sites or containing M3 sites in 293T cells. The format is cell-based, human. The text has this: An XbaI-EcoRV fragment containing the entire DMP1 coding sequence is subcloned by blunt end ligation into a SpeI-XbaI fragment of the Rc/RSV vector (Invitrogen, La Jolla Calif.) to enable DMP1 expression in mammalian cells. 6×concatamerized BS1, 8×concatamerized, BS2, or 7×concatamerized M3 oligonucleotides (FIG. 5B) are inserted into the XhoI-SmaI sites of pGL2 (Pfornega) 5′ to a minimal simian virus 40 (SV40) early promoter driving firefly luciferase gene expression. The latter “reporter” plasmid (1 μg) together with increasing amounts of pRc/RSV-DMP1 expression plasmid compensated by decreasing quantities of control pRc/RSV DNA (total of both=2.5 μg) were transfected into 293T cells (1.5×10^6 cells per 60 mm diameter culture dish) by calcium phosphate precipitation (7). Two days later, cells were harvested, washed three times with PBS, and lysed in 1 ml of 25 mM glycylglycine (Sigma), pH 7.8, 15 mM MgSO4, 4 mM EDTA, 1 mM DTT, and 1% Triton X-100. After clearing by centrifugation, 50 μl aliquots were assayed diluted to 350 μl using 15 mM potassium phosphate buffer, pH 7.8, containing 15 mM MgSO4, 4 mM EGTA, 2 mM ATP, 1 mM DTT, and 67 uM luciferin (Sigma). Total light emission was measured for duplicate samples during the initial 20 seconds after luciferin injection with an Optocomp I luminometer (MGM Instruments, Hamden Conn.). […]

For test [2], the system named is 281 bp ARF promoter fragment. Nature of the test: Transactivation of ARF promoter-luciferase reporter in NIH-3T3 cells. The settings on record: NIH-3T3, 281 bp ARF promoter fragment-luciferase. The format is cell-based, mouse. The procedure:
Transactivation assays. NIH-3T3 cells were transfected with 4 μg of pGL2-ARFpro BamHI or its DMP1 binding site mutant, with or without increasing amount of pFLEX-DMP1, pEVRFO-Ets1, pCMV-Ets2, pRcRSV-Elfl, pdEB-Fli1, p(IEB-EWS-Fli1 or pCMV-E2F-1 (89-437), and 4 μg β-actin SEAP control vectors [Inoue and Sherr, Mol. Cell. Biol. 18: 1590-1600 (1998); Inoue et al., J. Biol. Chem. 273:29188-29194 (1998); Davis and Roussel, Gene 171:265-269 (1996); Baily et al., Mol. Cell. Biol. 14:3230-3241 (1994)]. Transfections and normalization of luciferase levels with internal control SEAP levels were performed as described [Inoue and Sherr, Mol. Cell. Biol. 18:1590-1600 (1998)].
Similarly, DMP1 deletion mutants defective in transactivation [Inoue and Sherr, Mol. Cell. […] Mutation of the DMP1 binding site within the ARF promoter [changing CCCGGATGC, (SEQ ID NO:33) to CCCGTCGAC, (SEQ ID NO:42)] also completely abolished transactivation by wild-type DMP1 (FIG. 14C, mutant reporter). Therefore, sequences within the −189 to −181 ARF promoter segment were the only ones responsible for DMP1-mediated transactivation. Although Ets1 could bind to a 23 base pair oligonucleotide containing the DMP1 consensus site (FIG. 14B), several Ets proteins were unable to induce significant reporter gene expression from the more complex 281 base pair ARF promoter (FIG. 14C). […]

For the substance “DMP1: murine cyclin D-associated myb-like transcription factor, 761 amino acids, SEQ ID NO:1”, in test [1], the transactivation entry is given as “not observed”. Also, in test [2], the “ARF promoter reporter gene expression” value is reported as “enhanced reporter gene expression”.
